Key:
[1] = system: KYSE-150 esophageal carcinoma cell line; experiment: In vitro cell-based assay: cellular proliferation via BrdU incorporation (ELISA); set-up: species or system human; conditions: Homo sapiens, KYSE-150, 168 hours compound incubation
Method: The primary cellular assay for JMJD2C inhibition is an assay which measures cellular proliferation via Bromodeoxyuridine (BrdU) incorporation after 168 hours of compound incubation. Cell lines tested include the JMJD2C gene amplified cell line KYSE-150. This is a quantitative ELISA assay measuring DNA incorporation of BrdU during S-phase as a direct readout of cellular proliferation.
Assay Principle: This is a colorimetric immunoassay for the quantification of cell proliferation. Cells treated for 168 hours with test compounds are assayed for their ability to go through S-phase as a measure of their proliferative potential.
Assay Method: The human KYSE-150 (SMAD4 mut, TP53 mut) esophageal carcinoma cell line was seeded at 2,000 cells/well on a 96-well tissue culture treated plate. After an overnight incubation, cells were treated with compound in an 11-point dilution series with final concentrations ranging from 100 μM to 2 nM. Cells were then incubated in the presence of compound for 168 hours. After compound incubation the cells were assayed using a BrdU Cell Proliferation ELISA (Roche). The cells were first incubated with BrdU labeling reagent for 2 hours. After 2 hours, the BrdU incorporated cells were fixed and denatured, probed with an anti-BrdU-Peroxidase antibody for 1.5 hours and washed. Finally, a tetramethylbenzidine peroxidase substrate was added to each well for 15 minutes followed by a H2SO4 stop solution. The plate was read at 450 nm, and the raw optical density data was transferred into XLFit (IDBS) for IC50 calculation using the formula: fit=(D+((Vmax*(x^n))/((x^n)+(Km^n))))

[2] = molecular target: JMJD2C (Homo sapiens (Human), UniProt Q9H3R0); experiment: In vitro enzyme inhibition assay for JMJD2C activity (TR-FRET); assay type: biochemical
Method: This assay determines the ability of a test compound to inhibit JMJD2C demethylase activity. Baculovirus expressed JMJD2C (GenBank Accession #BC143571, AA 2-372) was purchased from BPS Bioscience (Cat#50105).
The ability of test compounds to inhibit the activity of JMJD2C was determined in 384-well plate format under the following reaction conditions: 0.3 nM JMJD2C, 300 nM H3K9me3-biotin labeled peptide (Anaspec cat #64360), 2 μM alpha-ketoglutaric acid in assay buffer of 50 mM HEPES, pH7.3, 0.005% Brij35, 0.5 mM TCEP, 0.2 mg/ml BSA, 50 μM sodium L-ascorbate, and 2 μM ammonium iron(II) sulfate. Reaction product was determined quantitatively by TR-FRET after the addition of detection reagent Phycolink Streptavidin-allophycocyanin (Prozyme) and Europium-anti-di-methylated histone H3 lysine 9 (H3K9me2) antibody (PerkinElmer) in the presence of 5 mM EDTA in LANCE detection buffer (PerkinElmer) at a final concentration of 50 nM and 1 nM, respectively.
The assay reaction was initiated by the following: 2 μl of the mixture of 900 nM H3K9me3-biotin labeled peptide and 6 μM alpha-ketoglutaric acid with 2 μl of 11-point serial diluted inhibitor in 3% DMSO were added to each well of the plate, followed by the addition of 2 μl of 0.9 nM JMJD2C to initiate the reaction. The reaction mixture was incubated at room temperature for 30 minutes, and terminated by the addition of 6 μl of 5 mM EDTA in LANCE detection buffer containing 100 nM Phycolink Streptavidin-allophycocyanin and 2 nM Europium-anti-H3K9me2 antibody. Plates were read by EnVisionMultilabel Reader in TR-FRET mode (excitation at 320 nm, emission at 615 nm and 665 nm) after 1 hour incubation at room temperature. A ratio was calculated (665/615) for each well and fitted to determine inhibition constant (IC50).

Sequence of JMJD2C (Q9H3R0 2-372): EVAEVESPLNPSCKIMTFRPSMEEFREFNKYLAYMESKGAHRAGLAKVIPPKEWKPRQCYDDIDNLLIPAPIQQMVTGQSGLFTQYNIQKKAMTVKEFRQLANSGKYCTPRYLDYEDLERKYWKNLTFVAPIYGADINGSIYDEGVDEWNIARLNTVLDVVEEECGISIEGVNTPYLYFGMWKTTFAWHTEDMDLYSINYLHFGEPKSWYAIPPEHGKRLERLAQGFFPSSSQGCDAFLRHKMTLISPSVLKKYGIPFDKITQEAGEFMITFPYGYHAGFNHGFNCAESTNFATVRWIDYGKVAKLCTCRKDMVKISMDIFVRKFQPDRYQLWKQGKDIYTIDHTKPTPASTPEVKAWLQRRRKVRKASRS

| SMILES | IC50 [1] | IC50 [2] |
| --- | --- | --- |
| CC(C)C#Cc1ccc2c(c1)OCCC2CNc1cnccc1C(=O)O (stereo not shown) [Example 38, 3-({[7-(3-methylbut-1-yn-1-yl)-3,4-dihydro-2H-1-benzopyran-4-yl]methyl}amino)pyridine-4-carboxylic acid] | > 10000 nM | 100 to 1000 nM |
| Cc1c(F)cccc1-c1ccc2c(c1)OCC[C@H]2CNc1cnccc1C(=O)O [Example 42, 3-({[(4R)-7-(3-fluoro-2-methylphenyl)-3,4-dihydro-2H-1-benzopyran-4-yl]methyl}amino)pyridine-4-carboxylic acid] | 100 to 1000 nM | 100 to 1000 nM |
| Cc1ccc(F)cc1-c1ccc2c(c1)OCC[C@H]2CNc1cnccc1C(=O)O [Example 43, 3-({[(4R)-7-(5-fluoro-2-methylphenyl)-3,4-dihydro-2H-1-benzopyran-4-yl]methyl}amino)pyridine-4-carboxylic acid] | ≤ 100 nM | 100 to 1000 nM |
| O=C(O)c1ccncc1NC[C@@H]1CCOc2cc(-c3cccc(F)c3Cl)ccc21 [Example 44, 3-({[(4R)-7-(2-chloro-3-fluorophenyl)-3,4-dihydro-2H-1-benzopyran-4-yl]methyl}amino)pyridine-4-carboxylic acid] | 100 to 1000 nM | 100 to 1000 nM |
| O=C(O)c1ccncc1NC[C@@H]1CCOc2cc(-c3cc(F)ccc3Cl)ccc21 [Example 45, 3-({[(4R)-7-(2-chloro-5-fluorophenyl)-3,4-dihydro-2H-1-benzopyran-4-yl]methyl}amino)pyridine-4-carboxylic acid] | 100 to 1000 nM | 100 to 1000 nM |
| O=C(O)c1ccncc1NC[C@@H]1CCOc2cc(-c3ccccc3C(F)(F)F)ccc21 [Example 46, 3-({[(4R)-7-[2-(trifluoromethyl)phenyl]-3,4-dihydro-2H-1-benzopyran-4-yl]methyl}amino)pyridine-4-carboxylic acid] | ≤ 100 nM | 100 to 1000 nM |
| O=C(O)c1ccncc1NC[C@@H]1CCOc2cc(Oc3ccccc3)ccc21 [Example 48, 3-({[(4R)-7-phenoxy-3,4-dihydro-2H-1-benzopyran-4-yl]methyl}amino)pyridine-4-carboxylic acid] | 1000 to 10000 nM | 100 to 1000 nM |
| O=C(O)c1ccncc1NCC1CCOc2cc(Sc3cccs3)ccc21 (stereo not shown) [Example 49, 3-({[7-(thiophen-2-ylsulfanyl)-3,4-dihydro-2H-1-benzopyran-4-yl]methyl}amino)pyridine-4-carboxylic acid] | 1000 to 10000 nM | 100 to 1000 nM |
| Cc1ccccc1Sc1ccc2c(c1)OCC[C@H]2CNc1cnccc1C(=O)O [Example 51, 3-({[(4R)-7-[(2-methylphenyl)sulfanyl]-3,4-dihydro-2H-1-benzopyran-4-yl]methyl}amino)pyridine-4-carboxylic acid] | 1000 to 10000 nM | 100 to 1000 nM |
| O=C(O)c1ccncc1NC[C@@H]1CCOc2cc(Sc3cccc(F)c3)ccc21 [Example 53, 3-({[(4R)-7-[(3-fluorophenyl)sulfanyl]-3,4-dihydro-2H-1-benzopyran-4-yl]methyl}amino)pyridine-4-carboxylic acid] | 100 to 1000 nM | 100 to 1000 nM |
| Cc1cccc(Oc2ccc3c(c2)CCCC3CNc2cnccc2C(=O)O)n1 (stereo not shown) [Example 56, 3-[({6-[(6-methylpyridin-2-yl)oxy]-1,2,3,4-tetrahydronaphthalen-1-yl}methyl)amino]pyridine-4-carboxylic acid] | 1000 to 10000 nM | 100 to 1000 nM |
| Cc1ccccc1Oc1ccc2c(c1)CCC[C@H]2CNc1cnccc1C(=O)O [Example 58, 3-({[(1R)-6-(2-methylphenoxy)-1,2,3,4-tetrahydronaphthalen-1-yl]methyl}amino)pyridine-4-carboxylic acid] | ≤ 100 nM | 100 to 1000 nM |
| CCCOc1ccc2c(c1)CCCC2CNc1cnccc1C(=O)O (stereo not shown) [Example 59, 3-{[(6-propoxy-1,2,3,4-tetrahydronaphthalen-1-yl)methyl]amino}pyridine-4-carboxylic acid] | 1000 to 10000 nM | 100 to 1000 nM |
| O=C(O)c1ccncc1NC[C@@H]1CCCc2cc(OC(F)F)ccc21 [Example 61, 3-({[(1R)-6-(difluoromethoxy)-1,2,3,4-tetrahydronaphthalen-1-yl]methyl}amino)pyridine-4-carboxylic acid] | 1000 to 10000 nM | 100 to 1000 nM |
| O=C(O)c1ccncc1NCC1CCCc2cc(OCC3CCOCC3)ccc21 (stereo not shown) [Example 63, 3-({[6-(oxan-4-ylmethoxy)-1,2,3,4-tetrahydronaphthalen-1-yl]methyl}amino)pyridine-4-carboxylic acid] | > 10000 nM | 100 to 1000 nM |
| Cc1cc(F)ccc1Oc1ccc2c(c1)CCC[C@H]2CNc1cnccc1C(=O)O [Example 64, 3-({[(1R)-6-(4-fluoro-2-methylphenoxy)-1,2,3,4-tetrahydronaphthalen-1-yl]methyl}amino)pyridine-4-carboxylic acid] | ≤ 100 nM | 100 to 1000 nM |
| O=C(O)c1ccncc1NC[C@@H]1CCCc2cc(Oc3ccc(F)cc3F)ccc21 [Example 65, 3-({[(1R)-6-(2,4-difluorophenoxy)-1,2,3,4-tetrahydronaphthalen-1-yl]methyl}amino)pyridine-4-carboxylic acid] | 100 to 1000 nM | 100 to 1000 nM |
| O=C(O)c1ccncc1NC[C@@H]1CCCc2cc(Oc3ccccc3Cl)ccc21 [Example 67, 3-({[(1R)-6-(2-chlorophenoxy)-1,2,3,4-tetrahydronaphthalen-1-yl]methyl}amino)pyridine-4-carboxylic acid] | 100 to 1000 nM | 100 to 1000 nM |
| Cc1cccc(Sc2ccc3c(c2)CCC[C@H]3CNc2cnccc2C(=O)O)c1 [Example 69, 3-({[(1R)-6-[(3-methylphenyl)sulfanyl]-1,2,3,4-tetrahydronaphthalen-1-yl]methyl}amino)pyridine-4-carboxylic acid] | 100 to 1000 nM | 1000 to 10000 nM |
| Cc1ccccc1Sc1ccc2c(c1)CCC[C@H]2CNc1cnccc1C(=O)O [Example 71, 3-({[(1R)-6-[(2-methylphenyl)sulfanyl]-1,2,3,4-tetrahydronaphthalen-1-yl]methyl}amino)pyridine-4-carboxylic acid] | 100 to 1000 nM | 1000 to 10000 nM |
| O=C(O)c1ccncc1NC[C@@H]1CCCc2cc(Sc3ccccc3F)ccc21 [Example 73, 3-({[(1R)-6-[(2-fluorophenyl)sulfanyl]-1,2,3,4-tetrahydronaphthalen-1-yl]methyl}amino)pyridine-4-carboxylic acid] | 100 to 1000 nM | 100 to 1000 nM |
| O=C(O)c1ccncc1NC[C@@H]1CCCc2cc(Sc3ccc(F)cc3)ccc21 [Example 77, 3-({[(1R)-6-[(4-fluorophenyl)sulfanyl]-1,2,3,4-tetrahydronaphthalen-1-yl]methyl}amino)pyridine-4-carboxylic acid] | ≤ 100 nM | 100 to 1000 nM |
| Cc1ccc(Sc2ccc3c(c2)CCC[C@H]3CNc2cnccc2C(=O)O)cc1 [Example 79, 3-({[(1R)-6-[(4-methylphenyl)sulfanyl]-1,2,3,4-tetrahydronaphthalen-1-yl]methyl}amino)pyridine-4-carboxylic acid] | ≤ 100 nM | 1000 to 10000 nM |
| O=C(O)c1ccncc1NCC1CCCc2cc(Sc3ccccn3)ccc21 (stereo not shown) [Example 80, 3-({[6-(pyridin-2-ylsulfanyl)-1,2,3,4-tetrahydronaphthalen-1-yl]methyl}amino)pyridine-4-carboxylic acid] | 1000 to 10000 nM | 100 to 1000 nM |
| O=C(O)c1ccncc1NC[C@@H]1CCCc2cc(S(=O)(=O)c3ccccc3)ccc21 [Example 82, 3-({[(1R)-6-(benzenesulfonyl)-1,2,3,4-tetrahydronaphthalen-1-yl]methyl}amino)pyridine-4-carboxylic acid] | > 10000 nM | 100 to 1000 nM |
| Cc1ccc(S(=O)(=O)c2ccc3c(c2)CCC[C@H]3CNc2cnccc2C(=O)O)cc1 [Example 84, 3-({[(1R)-6-(4-methylbenzenesulfonyl)-1,2,3,4-tetrahydronaphthalen-1-yl]methyl}amino)pyridine-4-carboxylic acid] | > 10000 nM | 100 to 1000 nM |

Reference: patent publication US10106534B2 (CELGENE QUANTICEL RESEARCH, INC., priority 2014, dated 2018)
